Read-outs that look alike come from different tables or passages of the source.
Legend:
[1] = system: GP2D cells; assay: Cell proliferation assay (CellTiter-Glo), K-Ras G12D cells; format: cell-based; conditions: read-out: Inhibition of GP2D Cells (IC50)
Protocol: ASPC-1 (ATCC CRL-1682), Panc-10.05 (ATCC CRL-2547), A427, and GP2D (Sigma 95090714) cell lines comprise a G12D mutation and can be used to assess Ras cellular signaling in vitro, e.g., in response to the compounds herein. […] ASPC-1 culture medium is prepared with RPMI-1640 and 10% heat-inactivated FBS. Panc-10.05 culture medium is prepared with RPMI-1640, 10 Units/ml human recombinant insulin, and 10% FBS. A427 cell culture is prepared with RPMI-1640 and 10% heat-inactivated FBS. GP2D culture medium is prepared with DMEM with 2mM glutamine and 10% heat-inactivated FBS. A Cell Titer-Glo (CTG) luminescent based assay (Promega) is used to assess growth of the cells, as a measurement of the ability of the compounds herein to inhibit Ras signaling in the cells. The cells (e.g., 800 per well) are seeded in their respective culture medium in standard tissue culture-treated 384-well format plates (Falcon #08-772-116) or ultra-low attachment surface 384-well format plates (S-Bio # MS-9384UZ ). The day after plating, cells are treated with a dilution series (e.g., a 9 point 3-fold dilution series) of the compounds herein (e.g., approximately 40 µl final volume per well). Cell viability can be monitored (e.g., approximately 5 days later) according to the manufacturer's recommended instructions, where the CellTiter-Glo reagent is added (e.g., approximately 10 µl), vigorously mixed, covered, and placed on a plate shaker (e.g., approximately for 20 min) to ensure sufficient cell lysis prior to assessment of luminescent signal. The IC50 values are determined using the four parameter fit. The resulting IC50 value is a measurement of the ability of the compounds herein to reduce cell growth of Ras-driven cells (e.g., tumor cell lines) in vitro and/or in vivo.

[2] = biological target: T1, K-Ras G12S (Homo sapiens, UniProt P01116, G12S); assay: HTRF assay of the K-Ras / SOS1 interaction; format: biochemical; conditions: IC50 (against K-Ras G12D) to IC50 (against K-Ras G12S)
T1 construct: made in house; host or cells: E. coli (e.g., BL21 (DE3))
T1 sequence (P01116 1-188 isoform P01116-2 G12S): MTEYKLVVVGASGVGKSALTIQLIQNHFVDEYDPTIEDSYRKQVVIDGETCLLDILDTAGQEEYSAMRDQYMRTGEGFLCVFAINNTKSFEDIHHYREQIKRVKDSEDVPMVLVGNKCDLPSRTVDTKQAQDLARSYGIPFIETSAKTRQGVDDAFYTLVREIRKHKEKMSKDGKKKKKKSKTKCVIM
In short: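 Compounds (duplicates, 10 µM to 0.01 µM) were incubated ≥~10 min with Eu-labelled GST-K-Ras G12S and XL665-labelled His-hSOS1 in HEPES pH 7.4 buffer containing NaCl, DTT, BSA and Igepal. Disruption measured as HTRF emission ratio 665/620 nm, fitted to IC50.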

SMILES | IC50 ([1]; GP2d) | Ratio of IC50 KRAS G12D vs. IC50 KRAS G12S [2] | IC50 ([1]; GP2D cells (K-Ras G12D))
Nc1nc2c(-c3c(Cl)cc4c(NCCN5CC6CCC(C5)N6C(=O)n5cncn5)nc(OC[C@@]56CCCN5C[C@H](F)C6)nc4c3F)ccc(F)c2s1 [Compound A168, (3-(2-((7-(2-amino-7-fluorobenzo[d]thiazol-4-yl)-6-chloro-8-fluoro-2-(((2R,7aS)-2-fluorotetrahydro-1H-pyrrolizin-7a(5H)-yl)methoxy)quinazolin-4-yl)amino)ethyl)-3,8-diazabicyclo[3.2.1]octan-8-yl)(1H-1,2,4-triazol-1-yl)methanone] | 1000 to 10000 nM | A (A: indicates that the ratio of IC50 against KrasG12D vs. IC50 against KrasG12S is 1-fold or greater) | –
Cc1cnn(C(=O)N2CCN(c3nc(OC[C@@]45CCCN4C[C@H](F)C5)nc4c(F)c(-c5ccc(F)c6sc(N)nc56)c(Cl)cc34)CC(F)(F)C2)c1 [Compound A203, (4-(7-(2-amino-7-fluorobenzo[d]thiazol-4-yl)-6-chloro-8-fluoro-2-(((2R,7aS)-2-fluorotetrahydro-1H-pyrrolizin-7a(5H)-yl)methoxy)quinazolm-4-yl)-6,6-difluoro-1,4-diazepan-1-yl)(4-methyl-1H-pyrazol-1-yl)methanone] | – | A (A: indicates that the ratio of IC50 against KrasG12D vs. IC50 against KrasG12S is 1-fold or greater) | 1000 to 10000 nM
Nc1nc2c(-c3c(Cl)cc4c(N5CC6CCC(C5)N6C(=O)n5cnc(F)c5)nc(OC[C@@]56CCCN5C[C@H](F)C6)nc4c3F)ccc(F)c2s1 [Compound A135, (3-(7-(2-amino-7-fluorobenzo[d]thiazol-4-yl)-6-chloro-8-fluoro-2-(((2R,7aS)-2-fluorotetrahydro-1H-pyrrolizin-7a(5H)-yl)methoxy)quinazolin-4-yl)-3,8-diazabicyclo[3.2.1]octan-8-yl)(4-fluoro-1H-imidazol-1-yl)methanone] | ≤ 1000 nM | A (A: indicates that the ratio of IC50 against KrasG12D vs. IC50 against KrasG12S is 1-fold or greater) | –
C#Cc1c(F)ccc2cc(O)cc(-c3ncc4c(N5C6COCC5CN(C(=O)n5cc(C#N)cn5)C6)nc(OC[C@@]56CCCN5C[C@H](F)C6)nc4c3F)c12 [Compound A226, 1-(9-(7-(8-ethynyl-7-fluoro-3-hydroxynaphthalen-1-yl)-8-fluoro-2-(((2R,7aS)-2-fluorotetrahydro-1H-pyrrolizin-7a(5H)-yl)methoxy)pyrido[4,3-d]pyrimidin-4-yl)-3-oxa-7,9-diazabicyclo[3.3.1]nonane-7-carbonyl)-1H-pyrazole-4-carbonitrile] | – | A (A: indicates that the ratio of IC50 against KrasG12D vs. IC50 against KrasG12S is 1-fold or greater) | 1000 to 10000 nM
N#Cc1c(N)sc2c(F)ccc(-c3c(Cl)cc4c(C5C[C@H]6CC[C@@H](C5)N6C(=O)n5cncn5)nc(OC[C@@]56CCCN5C[C@H](F)C6)nc4c3F)c12 (stereo partly drawn) [Compound A235, 4-(4-((1R,5S)-8-(1H-1,2,4-triazole-1-carbonyl)-8-azabicyclo[3.2.1]octan-3-yl)-6-chloro-8-fluoro-2-(((2R,7aS)-2-fluorotetrahydro-1H-pyrrolizin-7a(5H)-yl)methoxy)quinazolin-7-yl)-2-amino-7-fluorobenzo[b]thiophene-3-carbonitrile] | – | A (A: indicates that the ratio of IC50 against KrasG12D vs. IC50 against KrasG12S is 1-fold or greater) | 1000 to 10000 nM
C[C@@H]1CN(C(=O)n2cncn2)[C@@H](C)CN1c1nc(OC[C@@]23CCCN2C[C@H](F)C3)nc2c(F)c(-c3ccc(F)c4sc(N)nc34)c(Cl)cc12 [Compound A244, ((2S,5R)-4-(7-(2-amino-7-fluorobenzo[d]thiazol-4-yl)-6-chloro-8-fluoro-2-(((2R,7aS)-2-fluorotetrahydro-1H-pyrrolizin-7a(5H)-yl)methoxy)quinazolin-4-yl)-2,5-dimethylpiperazin-1-yl)(1H-1,2,4-triazol-1-yl)methanone] | – | A (A: indicates that the ratio of IC50 against KrasG12D vs. IC50 against KrasG12S is 1-fold or greater) | 1000 to 10000 nM
N#Cc1cnn(C(=O)N2CCC(Nc3nc(OC[C@@]45CCCN4C[C@H](F)C5)nc4c(F)c(-c5ccc(F)c6sc(N)nc56)c(Cl)cc34)CC2)c1 [Compound A151, 1-(4-((7-(2-amino-7-fluorobenzo[d]thiazol-4-yl)-6-chloro-8-fluoro-2-(((2R,7aS)-2-fluorotetrahydro-1H-pyrrolizin-7a(5H)-yl)methoxy)quinazolin-4-yl)amino)piperidine-1-carbonyl)-1H-pyrazole-4-carbonitrile] | – | A (A: indicates that the ratio of IC50 against KrasG12D vs. IC50 against KrasG12S is 1-fold or greater) | 1000 to 10000 nM
Nc1nc2c(-c3c(Cl)cc4c(N5C6COCC5CN(C(=O)n5cncn5)C6)nc(OC[C@@]56CCCN5C[C@H](F)C6)nc4c3F)ccc(F)c2s1 [Compound A270, (9-(7-(2-amino-7-fluorobenzo[d]thiazol-4-yl)-6-chloro-8-fluoro-2-(((2R,7aS)-2-fluorotetrahydro-1H-pyrrolizin-7a(5H)-yl)methoxy)quinazolin-4-yl)-3-oxa-7,9-diazabicyclo[3.3.1]nonan-7-yl)(1H-1,2,4-triazol-1-yl)methanone] | ≤ 1000 nM | A (A: indicates that the ratio of IC50 against KrasG12D vs. IC50 against KrasG12S is 1-fold or greater) | –
Nc1nc2c(-c3c(Cl)cc4c(N[C@@H]5C[C@H]6CC[C@@H](C5)N6C(=O)n5cncn5)nc(OC[C@@]56CCCN5C[C@H](F)C6)nc4c3F)ccc(F)c2s1 [Compound A286, ((1R,3s,5S)-3-((7-(2-amino-7-fluorobenzo[d]thiazol-4-yl)-6-chloro-8-fluoro-2-(((2R,7aS)-2-fluorotetrahydro-1H-pyrrolizin-7a(5H)-yl)methoxy)quinazolin-4-yl)amino)-8-azabicyclo[3.2.1]octan-8-yl)(1H-1,2,4-triazol-1-yl)methanone] | 1000 to 10000 nM | A (A: indicates that the ratio of IC50 against KrasG12D vs. IC50 against KrasG12S is 1-fold or greater) | –
Nc1nc2c(-c3c(Cl)cc4c(NC5CC6(C5)CN(C(=O)n5cncn5)C6)nc(OC[C@@]56CCCN5C[C@H](F)C6)nc4c3F)ccc(F)c2s1 [Compound A211, (6-((7-(2-amino-7-fluorobenzo[d]thiazol-4-yl)-6-chloro-8-fluoro-2-(((2R,7aS)-2-fluorotetrahydro-1H-pyrrolizin-7a(5H)-yl)methoxy)quinazolin-4-yl)amino)-2-azaspiro[3.3]heptan-2-yl)(1H-1,2,4-triazol-1-yl)methanone] | – | A (A: indicates that the ratio of IC50 against KrasG12D vs. IC50 against KrasG12S is 1-fold or greater) | 1000 to 10000 nM
Nc1nc2c(-c3c(Cl)cc4c(N5CCC6(CCN(C(=O)n7cncn7)CC6)CC5)nc(OC[C@@]56CCCN5C[C@H](F)C6)nc4c3F)ccc(F)c2s1 [Compound A250, (9-(7-(2-amino-7-fluorobenzo[d]thiazol-4-yl)-6-chloro-8-fluoro-2-(((2R,7aS)-2-fluorotetrahydro-1H-pyrrolizin-7a(5H)-yl)methoxy)quinazolin-4-yl)-3,9-diazaspiro[5.5]undecan-3-yl)(1H-1,2,4-triazol-1-yl)methanone] | – | A (A: indicates that the ratio of IC50 against KrasG12D vs. IC50 against KrasG12S is 1-fold or greater) | 1000 to 10000 nM

— EP4389751A1, “HETEROCYCLIC COMPOUNDS AND USES THEREOF” (Kumquat Biosciences Inc., priority 2021, dated 2024)
